In the assay the target is β-galactosidase (β-Gal) (Escherichia coli, UniProt P00722). To be noted: substrate of β-galactosidase, components mixed in a vial, 35 min incubation, 25° C., pH 7.2 phosphate buffer with 1 mM MgCl2, Michaelis-Menten equation.

As usually defined, the Km is the concentration of substrate that gives half-maximal velocity.

β-galactosidase (β-Gal), sequence (P00722 2-1024): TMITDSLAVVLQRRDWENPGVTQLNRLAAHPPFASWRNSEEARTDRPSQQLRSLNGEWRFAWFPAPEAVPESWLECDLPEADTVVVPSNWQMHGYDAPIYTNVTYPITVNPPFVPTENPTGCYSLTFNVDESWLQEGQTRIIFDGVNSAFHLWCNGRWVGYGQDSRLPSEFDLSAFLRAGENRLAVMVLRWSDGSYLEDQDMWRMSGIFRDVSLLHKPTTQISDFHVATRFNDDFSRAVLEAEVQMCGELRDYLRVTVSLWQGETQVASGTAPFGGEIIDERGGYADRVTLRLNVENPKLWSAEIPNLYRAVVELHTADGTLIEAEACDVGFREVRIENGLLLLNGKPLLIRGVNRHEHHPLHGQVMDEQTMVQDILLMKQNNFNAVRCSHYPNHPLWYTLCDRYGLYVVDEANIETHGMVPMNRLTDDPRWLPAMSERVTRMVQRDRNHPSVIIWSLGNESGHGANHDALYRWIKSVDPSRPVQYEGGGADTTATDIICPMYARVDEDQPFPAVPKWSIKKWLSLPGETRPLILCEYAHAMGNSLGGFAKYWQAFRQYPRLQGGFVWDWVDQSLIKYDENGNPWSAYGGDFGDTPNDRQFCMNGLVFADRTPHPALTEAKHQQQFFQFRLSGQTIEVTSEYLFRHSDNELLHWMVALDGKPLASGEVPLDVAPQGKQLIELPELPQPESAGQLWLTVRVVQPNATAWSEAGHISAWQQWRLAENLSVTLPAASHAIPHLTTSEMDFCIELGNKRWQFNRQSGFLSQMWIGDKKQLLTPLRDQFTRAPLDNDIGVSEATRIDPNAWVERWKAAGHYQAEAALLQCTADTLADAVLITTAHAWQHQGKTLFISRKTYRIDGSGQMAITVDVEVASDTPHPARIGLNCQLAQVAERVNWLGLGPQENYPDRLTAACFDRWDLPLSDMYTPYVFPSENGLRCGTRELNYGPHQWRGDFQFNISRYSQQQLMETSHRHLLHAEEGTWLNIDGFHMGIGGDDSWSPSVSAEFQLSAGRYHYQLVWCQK
Protocol: β-galactosidase (β-Gal) (isolated from E. coli), fluorescein mono-β-D-galactopyranoside (FMG), and fluorescein sodium salt were purchased from Sigma-Aldrich (Oakville, ON, Canada). All other chemicals were from Sigma-Aldrich, Caledon, or BDH (Toronto, ON, Canada), and were of analytical grade. Stock solutions of 4.4 mM FMG and 5 nM β-Gal were prepared with 10 mM phosphate (pH 7.2) buffer containing 1 mM MgCl2, and stored at −80° C. The 10 nM phosphate (pH 7.2) buffer containing 1 mM MgCl2 was also used for enzyme reactions, and for capillary electrophoresis as a run buffer. […]
All capillary electrophoresis (CE) experiments were carried out with a P/ACE MDQ instrument equipped with a laser-induced fluorescent (LIF) detector (Beckman-Coulter; Fullerton Calif.). Fluorescence was excited by a 488-nm line of an argon-ion laser (5 mW). […]
6 μL of 1 μM FMG, 3 μL of 1 nM β-Gal, and 9 μL of 10 mM phosphate buffer containing 1 mM MgCl2 were mixed in a 200 μL reservoir. […] The reaction mixture was directly used for quantifying the amount of the product by CE. […] The identification and quantitative assay of products were preformed by the addition of fluorescein (internal reference) to the reaction mixture.
The Km and Kcat values were determined using an approach previously described by Berezovski et al. (Electrophoresis, 23:3398-403, 2002). […]

`O=C1OC2(c3ccc(O)cc3Oc3cc(O[C@@H]4O[C@H](CO)[C@H](O)[C@H](O)[C@H]4O)ccc32)c2ccccc21` (stereo partly drawn) [fluorescein-mono-β-D-galactopyranoside, fluorescein mono-β-D-galactopyranoside]: the “catalytic rate constant, kcat” value was found to be 0.6 s⁻¹. For the same compound, for the setting “read-out: Michaelis constant, Km”, the Km is 0.9 µM.

Values taken from patent US7666660B2, “Method for mixing inside a capillary and devices for achieving same” (priority 2005, dated 2010).
